Assay results published in patent US8921307B2, “Synthetic linear apelin mimetics for the treatment of heart failure” (priority 2012, dated 2014).
Where a SMILES comes first, the peptide text is derived from it. [ ]: non-standard residue; d: D form. The star is where a group is joined. pGlu = O=C1CC[C@@H](C(=O)O)N1; dNle = CCCC[C@@H](N)C(=O)O; dNva = CCC[C@@H](N)C(=O)O; Nle = CCCC[C@H](N)C(=O)O; tBu = CC(C)(C)*

Key:
[1] = Surrogate Activity-Based Plasma Stability Assay; format: in vitro ADME; settings: rat, Surrogate activity-based Plasma stability t½
Description: Stability half-life was then calculated by the formula, t½=0.693÷k Surrogate Activity-Based Plasma Stability Assay: […]
2) Calculate slope of value above and […]

hAPJ = biological target: T1, hAPJ (Homo sapiens, UniProt P35414); test: hAPJ Calcium Flux Assay; format: cell-based; settings: Chem-5 APJ stable cells, FLIPR calcium flux stimulation; read-out: hAPJ Ca^2+ Flux EC50
T1 sequence (P35414 1-380): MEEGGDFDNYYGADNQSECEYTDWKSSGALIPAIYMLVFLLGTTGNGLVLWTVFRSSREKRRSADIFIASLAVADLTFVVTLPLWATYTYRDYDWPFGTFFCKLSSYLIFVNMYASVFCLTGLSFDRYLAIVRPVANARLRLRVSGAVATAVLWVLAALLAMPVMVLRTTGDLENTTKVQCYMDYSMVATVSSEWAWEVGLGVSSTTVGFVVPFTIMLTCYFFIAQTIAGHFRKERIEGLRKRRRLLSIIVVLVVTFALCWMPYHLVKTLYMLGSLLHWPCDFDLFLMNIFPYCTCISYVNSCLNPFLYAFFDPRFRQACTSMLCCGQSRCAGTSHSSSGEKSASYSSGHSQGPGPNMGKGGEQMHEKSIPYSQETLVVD
Description: Chem-5 APJ stable cells (Millipore # HTS068C) were plated in 384-well format with 10,000 cells/well in 25 ul growth media, then grown 24 hours in a 37° C. tissue culture incubator. One hour before the assay, 25 ul/well FLIPR Calcium 4 dye (Molecular Devices R8142) with 2.5 mM probenecid was added, and cells were incubated one hour in a 37° C. tissue culture incubator. Peptides were solubilized in HBSS, HEPES & 0.1% BSA buffer, and serially-diluted 10-fold, from 50 uM to […], in triplicate. FLIPR Tetra was used to add peptide to the cells with dye (1:5, for final peptide concentrations ranging from 10 uM to […]). FLIPR dye inside the cells emitted fluorescence after binding to calcium, while fluorescence from outside the cells was masked. Fluorescence was measured using 470-495 excitation and 515-575 emission wavelengths on the FLIPR Tetra. Readings were done for 3 minutes total, beginning 10 seconds before the peptide addition. Maximum-minimum values were calculated and plotted for each peptide concentration, and GraphPad prism software was used to calculate EC50 values at the curve inflection points, for calcium flux stimulation by peptides.

CCCC[C@@H](NC(=O)[C@@H]1CCCN1C(=O)CNC(=O)[C@H](CCCCN)NC(=O)[C@H](Cc1c[nH]cn1)NC(=O)[C@@H](C)NC(=O)[C@H](CC(C)C)NC(=O)[C@H](CCCNC(=N)N)NC(=O)[C@@H]1CCCN1C(=O)[C@H](CCCNC(=N)N)NC(=O)[C@@H]1CCC(=O)N1)C(=O)N[C@H](C)C(=O)N[C@H](CC(=O)O)C(=O)O [Example 22, pE-R-P-R-L-a-H-K-G-P-nle-a-d-OH] ([pGlu]RPRL[dA]HKGP[dNle][dA][dD]-OH)
half-life [1]: > 16.7 h
EC50 (hAPJ): 86.8 nM

CCCC[C@@H](NC(=O)[C@@H]1CCCN1C(=O)CNC(=O)[C@H](CCCCN)NC(=O)[C@@H](Cc1ccccc1)NC(=O)[C@H](CO)NC(=O)[C@H](CC(C)C)NC(=O)[C@H](CCCNC(=N)N)NC(=O)[C@@H]1CCCN1C(=O)[C@H](CCCNC(=N)N)NC(=O)[C@@H]1CCC(=O)N1)C(=O)N[C@H](C)C(=O)N[C@H](Cc1ccccc1)C(=O)O [Example 55, pE-R-P-R-L-S-f-K-G-P-nle-a-f-OH] ([pGlu]RPRLS[dF]KGP[dNle][dA][dF]-OH)
half-life [1]: 1.68 h
EC50 (hAPJ): 72.8 nM

CCCC[C@@H](NC(=O)[C@@H]1CCCN1C(=O)CNC(=O)[C@H](CCCCN)NC(=O)[C@H](Cc1c[nH]cn1)NC(=O)[C@@H](C)NC(=O)[C@H](CC(C)C)NC(=O)[C@H](CCCNC(=N)N)NC(=O)[C@@H]1CCCN1C(=O)[C@H](CCCNC(=N)N)NC(=O)[C@@H]1CCC(=O)N1)C(=O)N[C@H](CCC)C(=O)N[C@H](Cc1ccccc1)C(=O)O [Example 54, pE-R-P-R-L-a-H-K-G-P-nle-nva-f-OH] ([pGlu]RPRL[dA]HKGP[dNle][dNva][dF]-OH)
half-life [1]: 15 h
EC50 (hAPJ): 0.9 nM

CC(C)C[C@H](NC(=O)[C@H](CCCNC(=N)N)NC(=O)[C@@H]1CCCN1C(=O)[C@H](CCCNC(=N)N)NC(=O)[C@@H]1CCC(=O)N1)C(=O)N[C@H](C)C(=O)N[C@@H](Cc1c[nH]cn1)C(=O)N[C@@H](CCCCN)C(=O)NCC(=O)N1CCC[C@H]1C(=O)N[C@H](Cc1ccccc1)C(=O)N[C@H](C)C(=O)N[C@H](Cc1ccccc1)C(=O)O [Example 57, pE-R-P-R-L-a-H-K-G-P-f-a-f-OH] ([pGlu]RPRL[dA]HKGP[dF][dA][dF]-OH)
half-life [1]: > 16.7 h
EC50 (hAPJ): 1.5 nM

CCCC[C@@H](NC(=O)[C@@H]1CCCN1C(=O)CNC(=O)[C@H](CCCCN)NC(=O)[C@H](Cc1c[nH]cn1)NC(=O)[C@@H](CSC(C)(C)C)NC(=O)[C@H](CC(C)C)NC(=O)[C@H](CCCNC(=N)N)NC(=O)[C@@H]1CCCN1C(=O)[C@H](CCCNC(=N)N)NC(=O)[C@@H]1CCC(=O)N1)C(=O)N[C@H](C)C(=O)N[C@H](Cc1ccccc1)C(=O)O [Example 7, pE-R-P-R-L-c(tBu)-H-K-G-P-nle-a-f-OH] ([pGlu]RPRL[dC](tBu)HKGP[dNle][dA][dF]-OH)
half-life [1]: > 16.7 h
EC50 (hAPJ): 693 nM

CCCC[C@@H](NC(=O)[C@@H]1CCCN1C(=O)CNC(=O)[C@H](CCCCN)NC(=O)[C@H](Cc1c[nH]cn1)NC(=O)[C@@H](C)NC(=O)[C@H](CC(C)C)NC(=O)[C@H](CCCNC(=N)N)NC(=O)[C@@H]1CCCN1C(=O)[C@H](CCCNC(=N)N)NC(=O)[C@@H]1CCC(=O)N1)C(=O)N[C@H](Cc1ccccc1)C(=O)O [Example 6, pE-R-P-R-L-a-H-K-G-P-nle-f-OH]
half-life [1]: > 16.7 h
EC50 (hAPJ): 3.1 nM

CCCC[C@@H](NC(=O)[C@@H]1CCCN1C(=O)CNC(=O)[C@H](CCCCN)NC(=O)[C@H](Cc1c[nH]cn1)NC(=O)[C@@H](CC(C)C)NC(=O)[C@H](CC(C)C)NC(=O)[C@H](CCCNC(=N)N)NC(=O)[C@@H]1CCCN1C(=O)[C@H](CCCNC(=N)N)NC(=O)[C@@H]1CCC(=O)N1)C(=O)N[C@H](C)C(=O)N[C@H](Cc1ccccc1)C(=O)O [Example 10, pE-R-P-R-L-(D-Leu)-H-K-G-P-nle-a-f-OH] ([pGlu]RPRL[dL]HKGP[dNle][dA][dF]-OH)
half-life [1]: > 16.7 h
EC50 (hAPJ): 155 nM

CCCC[C@@H](NC(=O)[C@@H]1CCCN1C(=O)CNC(=O)[C@H](CCCCN)NC(=O)[C@@H](Cc1c[nH]cn1)NC(=O)[C@H](CO)NC(=O)[C@H](CC(C)C)NC(=O)[C@H](CCCNC(=N)N)NC(=O)[C@@H]1CCCN1C(=O)[C@H](CCCNC(=N)N)NC(=O)[C@@H]1CCC(=O)N1)C(=O)N[C@H](C)C(=O)N[C@H](Cc1ccccc1)C(=O)O [Example 56, pE-R-P-R-L-S-h-K-G-P-nle-a-f-OH] ([pGlu]RPRLS[dH]KGP[dNle][dA][dF]-OH)
half-life [1]: 5.52 h
EC50 (hAPJ): 6.8 nM

CCCC[C@@H](NC(=O)[C@@H]1CCCN1C(=O)[C@H](CC(=O)O)NC(=O)[C@H](CCCCN)NC(=O)[C@H](Cc1c[nH]cn1)NC(=O)[C@@H](C)NC(=O)[C@H](CC(C)C)NC(=O)[C@H](CCCNC(=N)N)NC(=O)[C@@H]1CCCN1C(=O)[C@H](CCCNC(=N)N)NC(=O)[C@@H]1CCC(=O)N1)C(=O)N[C@H](C)C(=O)N[C@H](Cc1ccccc1)C(=O)O [Example 62, pE-R-P-R-L-a-H-K-D-P-nle-a-f-OH] ([pGlu]RPRL[dA]HKDP[dNle][dA][dF]-OH)
half-life [1]: 7.9 h
EC50 (hAPJ): 95.9 nM

CCCC[C@@H](NC(=O)[C@@H]1CCCN1C(=O)CNC(=O)[C@H](CCC(=O)O)NC(=O)[C@H](Cc1c[nH]cn1)NC(=O)[C@@H](C)NC(=O)[C@H](CC(C)C)NC(=O)[C@H](CCCNC(=N)N)NC(=O)[C@@H]1CCCN1C(=O)[C@H](CCCNC(=N)N)NC(=O)[C@@H]1CCC(=O)N1)C(=O)N[C@H](C)C(=O)N[C@H](Cc1ccccc1)C(=O)O [Example 60, pE-R-P-R-L-a-H-E-G-P-nle-a-f-OH] ([pGlu]RPRL[dA]HEGP[dNle][dA][dF]-OH)
half-life [1]: > 16.7 h
EC50 (hAPJ): 200 nM

CCCC[C@H](NC(=O)[C@@H]1CCCN1C(=O)CNC(=O)[C@H](CCCCN)NC(=O)C(C)(C)NC(=O)[C@H](CO)NC(=O)[C@H](CC(C)C)NC(=O)[C@H](CCCNC(=N)N)NC(=O)[C@@H]1CCCN1C(=O)[C@H](CCCNC(=N)N)NC(=O)[C@@H]1CCC(=O)N1)C(=O)N1CCC[C@H]1C(=O)N[C@H](Cc1ccccc1)C(=O)O [Example 41, pE-R-P-R-L-S-Aib-K-G-P-Nle-P-f-OH]
half-life [1]: 0.703 h
EC50 (hAPJ): 4.5 nM

CCCC[C@@H](NC(=O)[C@@H]1CCCN1C(=O)CNC(=O)[C@H](CCCCN)NC(=O)[C@H](Cc1c[nH]cn1)NC(=O)[C@@H](C)NC(=O)[C@H](CC(C)C)NC(=O)[C@H](CCCNC(=N)N)NC(=O)[C@@H](C)NC(=O)[C@H](CCCNC(=N)N)NC(=O)[C@@H]1CCC(=O)N1)C(=O)N[C@H](C)C(=O)N[C@H](Cc1ccccc1)C(=O)O [Example 49, pE-R-a-R-L-a-H-K-G-P-nle-a-f-OH] ([pGlu]R[dA]RL[dA]HKGP[dNle][dA][dF]-OH)
half-life [1]: > 16.7 h
EC50 (hAPJ): 623 nM

CCCC[C@H](NC(=O)[C@@H]1CCCN1C(=O)CNC(=O)[C@H](CCCCN)NC(=O)[C@H](Cc1c[nH]cn1)NC(=O)[C@@H](C)NC(=O)[C@H](CC(C)C)NC(=O)[C@H](CCCNC(=N)N)NC(=O)[C@@H]1CCCN1C(=O)[C@H](CCCNC(=N)N)NC(=O)[C@@H]1CCC(=O)N1)C(=O)N1CCC[C@H]1C(=O)N[C@H](Cc1ccccc1)C(=O)O [Example 34, pE-R-P-R-L-a-H-K-G-P-Nle-P-f-OH] ([pGlu]RPRL[dA]HKGP[Nle]P[dF]-OH)
half-life [1]: 0.387 h
EC50 (hAPJ): 34.5 nM

CCCC[C@H](NC(=O)[C@@H]1CCCN1C(=O)CNC(=O)[C@H](CCCCN)NC(=O)[C@H](Cc1c[nH]cn1)NC(=O)[C@@H](C)NC(=O)[C@H](CC(C)C)NC(=O)[C@H](CCCNC(=N)N)NC(=O)[C@@H]1CCCN1C(=O)[C@H](CCCNC(=N)N)NC(=O)[C@@H]1CCC(=O)N1)C(=O)N[C@H](Cc1ccccc1)C(=O)O [Example 35, pE-R-P-R-L-a-H-K-G-P-Nle-f-OH]
half-life [1]: > 16.7 h
EC50 (hAPJ): 10.7 nM

CCCC[C@@H](NC(=O)[C@@H]1CCCN1C(=O)CNC(=O)[C@H](CCCCN)NC(=O)[C@H](Cc1c[nH]cn1)NC(=O)[C@@H](CCC)NC(=O)[C@H](CC(C)C)NC(=O)[C@H](CCCNC(=N)N)NC(=O)[C@@H]1CCCN1C(=O)[C@H](CCCNC(=N)N)NC(=O)[C@@H]1CCC(=O)N1)C(=O)N[C@H](C)C(=O)N[C@H](Cc1ccccc1)C(=O)O [Example 52, pE-R-P-R-L-nva-H-K-G-P-nle-a-f-OH] ([pGlu]RPRL[dNva]HKGP[dNle][dA][dF]-OH)
half-life [1]: > 16.7 h
EC50 (hAPJ): 19.5 nM

CCCC[C@@H](NC(=O)[C@@H]1CCCN1C(=O)CNC(=O)[C@H](CCCCN)NC(=O)[C@H](Cc1c[nH]cn1)NC(=O)[C@@H](C)NC(=O)[C@H](CC(C)C)NC(=O)[C@H](CCCNC(=N)N)NC(=O)[C@@H]1CCCN1C(=O)[C@H](CCCNC(=N)N)NC(=O)[C@@H]1CCC(=O)N1)C(=O)N[C@H](CC)C(=O)N[C@H](Cc1ccccc1)C(=O)O [Example 45, pE-R-P-R-L-a-H-K-G-P-nle-abu-f-OH]
half-life [1]: > 16.7 h
EC50 (hAPJ): 2.4 nM
